According to patent US20230204587A1, “NOVEL DIAGNOSTIC MARKER FOR PROSTATE CANCER” (URTESTE S.A., priority 2020, published 2023):
Starred links: 1 amine or outer side, 2 acyl side, 3 side chain; linkers in the order of their positions; H or OH if unused. Non-standard residues stand in square brackets, D forms with d. No end group written: not given here. *: point of attachment. Benzoyl(5-NH,2-NO2) = O=C(c1cc(N[*:1])ccc1[N+](=O)[O-])[*:2]; pNA = O=[N+]([O-])c1ccc(N*)cc1; 2Abz = Nc1ccccc1C(=O)O

Assays:
[1] = test system: proteolytic enzymes in urine; assay: Chromogenic substrate hydrolysis in urine samples (absorbance at 405 nm, 96-well plate); format: biochemical, human; conditions: for rate of hydrolysis of substrate (increase in absorbance over time): 200 mM Tris-HCl pH 8.0, 37° C., 60 minutes, 405 nm
Method: The study on the application of new compounds was performed on a group of 25 patients diagnosed with prostate cancer. For this purpose, the compound with formula: ABZ-Trp-Glu-Gly-Asn-ANB-NH2 or ABZ-Trp-Glu-Gly-Asn-pNA was dissolved in dimethyl sulfoxide (at a concentration of 0.5 mg/mL); 50 μL of this solution was mixed with 120 μl buffer (200 mM Tris-HCl, pH 8.0) and 80 μL of urine of a person with prostate cancer. The measurement was made in a 96-well plate designed for measuring absorbance, and each sample was analysed in triplicate at 37° C. The duration of the measurement was 60 minutes. During the measurement, the wavelength characteristic of the released chromophore (ANB-NH2 or pNA) was monitored at 405 nm (range 380-430 nm).

[2] = test system: proteolytic enzymes in urine; assay: RP HPLC analysis of substrate hydrolysis in urine from a person diagnosed with prostate cancer; format: biochemical, human; conditions: randomly selected urine from a person diagnosed with prostate cancer
Method: A: ABZ-Trp-Glu-Gly-Asn-ANB-NH2 substrate in 200 mM Tris-HCl buffer, pH 8.0. B: Hydrolysis of ABZ-Trp-Glu-Gly-Asn-pNA substrate in urine of patients diagnosed with prostate cancer.

Row | rate of hydrolysis of substrate (increase in absorbance over time) ([1]; urine of patients diagnosed with prostate cancer (samples 1-25)) | Substance | rate of hydrolysis of substrate (increase in absorbance over time) ([1]; urine from healthy individuals) | absorbance increase on incubation with urine from various kinds of malignancies ([1]; urine from pancreas, liver, bowel, lung, bile duct, stomach and prostate cancer patients) | hydrolysis products by RP HPLC [2]
1 | all samples 1-25 disintegrated | ABZ-Trp-Glu-Gly-Asn-ANB-NH2 ([2Abz]WEGN-{Benzoyl(5-NH,2-NO2)-NH2}) [Compound 1, chromogenic peptide; ABZ is 2-aminobenzoic acid, ANB-NH2 is amide of 5-amino-2-nitrobenzoic acid] | does not lead to an increase in absorbance | absorbance increase is observed only for urine of patient diagnosed with prostate cancer | break down into the ABZ-Trp-Glu-Gly-Asn-OH peptide fragment and chromophore
2 | – | ABZ-Trp-Glu-Gly-Asn-pNA ([2Abz]WEGN-pNA) [Compound 2, chromogenic peptide; ABZ is 2-aminobenzoic acid, pNA is para-nitroaniline] | – | – | break down into the ABZ-Trp-Glu-Gly-Asn-OH peptide fragment and chromophore
